The text below walks through data of patent US10221153B2, “Dibenzothiophene compounds” (Saint Louis University, priority 2017, dated 2019).

“Also recorded” adds a separate entry of the source. Read-outs that look alike come from different tables or passages of the source.

A short description of data set [1]: Emission and excitation scans on spectrofluorometer, approximately 1 mM in acetonitrile (Example 3). In kind it is physicochemical. The protocol:
General Procedure for Emission and Excitation Data Collection:
(§1) All data were collected on a SHIMAZDU Spectrofluorometer RF-5301PC. Solutions of the respective compounds were prepared in acetonitrile at approximately 1 mM concentration. Solutions (4 mL) were added to a freshly washed quartz cuvette for measurements. The excitation wavelength was varied between 270 nm and 390 nm in 20 nm intervals until the greatest intensity emission was detected. The emission spectra ranges started at 20 nm to the red of the chosen excitation wavelength up to 780 nm. Scan speed was set at “Very Fast” with both the slit widths set to 1.5 mm.
(§2) All data were collected on a SHIMAZDU Spectrofluorometer RF-5301PC. Solutions of the respective compounds were prepared in acetonitrile at approximately 1 mM concentration. Solutions (4 mL) were added to a freshly washed quartz cuvette for measurements. The monitored emission wavelength was set using the high intensity emission from the respective molecule. The scanning range was from 220 nm through 770 nm. Scan speed was set at “Very Fast” with both the slit widths set to 1.5 mm.

The nature of data set [2]: Photophysical analysis: absorption, excitation and emission at 10 μM (Example 5). The class given is physicochemical. To be noted: for λabs / λem / Stokes Shift: acetonitrile at 10 μM; for λex (excitation wavelength): acetonitrile at 10 μM (footnotes a,b); for Stokes Shift: calculated from excitation wavelength; for λex: footnotes a,g: acetonitrile at 10 μM / EtOH at 10 μM. The protocol: as §1, §2
Excitation/emission data for compounds 6b, 7b, 8b, 15b, 16b, and 17b were collected using the methods described in Example 3 but using a lower concentration of acetonitrile (10 μM). Compounds 15b, 16b and 17b and their parent molecules (6b, 7b and 8b) all luminesce in the visible range and their optical properties are described in Table 4. […] The wavelength of λex for the excitation scan corresponds to excitation to S1, which leads to emission. This λex for all the molecules were red shifted, or shifted to the direction of longer wavelengths, from the peak absorption by an average 40 nm.

Assay in data set [3]: as above
In kind it is physicochemical. To be noted: EtOH at 10 μM.

Data set [4] is described as follows: Quantum yield by single-point method. To be noted: single-point method in EtOH.
The test system of data set [5] is HeLa human cervical carcinoma cell line. Briefly: Cell imaging of HeLa cells incubated with compound, fluorescence microscopy. In kind it is cell-based. To be noted: 1 μM, 120 min; for luminescence intensity in cells: excitation 350 nm, emission approximately 400 nm; for location of luminescence in the cell: merged bright field and UV images. The protocol:
HeLa human cervical carcinoma cell line was obtained from ATCC (Manassas, Va.). The cells were cultured in a humidified incubator at 5% CO2 and 37° C. The cell line was grown in D-MEM (Invitrogen) high glucose supplemented with 10.0% fetal bovine serum (Invitrogen, Carlsbad, Calif.) and 1.0% Penicillin/Streptomycin (Invitrogen, Carlsbad, Calif.) for an environment suitable for cell growth. The culture was sub-cultured every three days to maintain normal cell growth.
Sterile glass PDL coated #1.5 cover slips (NeuVitro), pre-incubated with culture medium, were placed in sterile 6-well plates. Single cell suspension of the HeLa (cervical cancer cells taken from patient Henrietta Lacks) cell line was prepared at 5×10^4 cells ml^−1 in the appropriate medium. Volumes of 2.0 mL were pipetted into each of the wells containing the coverslips. The 6-well plate was left overnight at 37.0° C. in a 5.0% CO2 incubator. Following the overnight incubation, the plate was aspirated dry and then fresh culture medium, containing the drug (at 1.0 μM and 0.10% DMSO) in a volume of 2.0 mL, was gently pipetted onto the cell monolayers attached to the glass cover slips. Cells on the cover slips were exposed to the drug for approximately 2 hours. Cells were washed with PBS and treated with 4.0% paraformaldehyde solution prepared in PBS, incubated for 30 minutes at room temperature for […]. Several washes with PBS were completed to ensure excess solution was rinsed away. Glass cover slips were removed and mounted on slides with ProLong Gold Antifade Mountant (ThermoFisher Scientific). The specimen was dried for several minutes and sealed with clear nail polish before visualized under a microscope
Cell Image Captures: All images were captured with a Leica DM 4000 B microscope with a DFC3000G camera (Leica Microsystems, Germany) and 63× oil immersion lens. HeLa cells were staged according to the method above. Leica LASX Core Software (Leica Microsystems, Germany) was used to acquire the images.
Stained cells were clearly observed by exciting the cells with a broadly emitting lamp using DAPI filter set. Luminescence was observed within the cell bodies of the HeLa cells upon excitation of the UV wavelengths. The excitation wavelength was 350 nm and the emission wavelength was approximately 400 nm. FIG. 14 depicts representative images of HeLa cervical cancer cell lines incubated with Compounds 16b, 15b, and 17b (1 μM) for 120 min. Bright field images of cells incubated with compounds 16b, 15b, and 17b are shown in Panels A, D, and G, respectively. Luminescence from each compound (16b, 15b, and 17b) is shown in Panels B, E, and H, respectively, with UV laser radiation.

For another data set, the system named is HeLa cells. As to the kind of experiment: Anti-proliferation (MTS) assay, HeLa cells, 72 hours. The settings on record: 1 nM to 100 μM. In kind it is cell-based, human. The protocol:
To determine whether long-term exposure to each compound could be toxic to cells, Hela cells were treated with varying concentrations of Compounds 16b, 15b and 17b for 72 hours. An anti-proliferation protocol was carried out by testing chosen compounds on the growth of the human cervical cancer cell lines. HeLa cells were cultured in their respective media supplemented with 10.0% FBS (fetal bovine serum) and 1.0% Pen/Strep. Cells (1,000 cells/100 μL per well) were plated in a 96-well culture plate (TC treated, Greiner) and incubated for 24 h. 50 μL (DMSO <1%) of the compound at final concentrations 100 μM, 10 μM, 1 μM, 100 nM, 10 nM, and 1 nM were added to the appropriate wells. Triplicates wells were performed for each compound, on three identical plates.
After incubation of the cells, at 37° C. in a humidified atmosphere of 5% CO2 for 72 hours, the cells were stained and incubated with MTS (3-(4,5-dimethylthiazol-2-yl)-5-(3-carboxymethoxyphenyl)-2-(4-sulfophenyl)-2H-tetrazolium) reagent in the presence of PMS (phenazine methosulfate) reagent for 2 hours to determine cell viability. An MTS assay is based on the reduction of the MTS tetrazolium compound by viable cells to generate a colored formazan dye that is soluble in cell culture media. The absorbance of each well was taken at 490 nm using a multimode plate reader (FlexStation 3, Molecular Devices, San Diego, Calif.). GraphPad Prism was used to analyze transposed data to determine the percent viability. […] Each compound was tested in at least triplicate.

Where [6] appears, read: cell footnote a: acetonitrile at 10 μM.

`O=S(=O)(Oc1ccccc1)c1ccc2c(c1)-c1cc(-c3ccccc3)ccc1S2(=O)=O` [Compound 6b, phenyl 8-phenyldibenzo[b,d]thiophene-2-sulfonate 5,5-dioxide]: in data set [1], the “emission wavelength (emitted at)” value is “about 437 nm”, the “excitation wavelength (excited at)” value amounted to 344 nm and the luminescence colour result is “luminesced in either a deep blue or near blue wavelength”. Besides, in data set [2], the “log εex (molar extinction coefficient at excitation wavelength)” value (“log εex” for short) turned out to be 4.45 M^−1 cm^−1, the λabs came out at 238 nm, the λem is 426 nm and the “λex (excitation wavelength)” value was determined as 274 nm. Also, in data set [2], the “Stokes Shift” value is recorded as 152 nm and the λex is 275 nm. In data set [3], the “log εmax (maximum molar extinction coefficient)” value (from here on “log εmax”) is 4.69 M^−1 cm^−1 and the λem stood at 434 nm. In data set [4], the “φ (quantum yield)” value came to 0.05.

Consider `O=S(=O)(Oc1ccccc1)c1ccc2c(c1)c1cc(-c3cccc4ccccc34)ccc1[s+]2[O-]` (stereo not drawn) [Compound 7a, phenyl 8-(naphthalen-1-yl)dibenzo[b,d]thiophene-2-sulfonate 5-oxide], for which the luminescence colour result in data set [1] is listed as “luminesced in either a deep blue or near blue wavelength”.

`O=S(=O)(Oc1ccccc1)c1ccc2c(c1)-c1cc(-c3cccc4ccccc34)ccc1S2(=O)=O` [Compound 7b, phenyl 8-(naphthalen-1-yl)dibenzo[b,d]thiophene-2-sulfonate 5,5-dioxide]: in data set [1], the “emission wavelength (emitted at)” value worked out at 499 nm, the “excitation wavelength (excited at)” value was 367 nm and the luminescence colour entry is on record as “luminesced in either a deep blue or near blue wavelength”. In data set [2], the “log εex” value was 4.51 M^−1 cm^−1, the λabs turned out to be 243 nm, the λem amounted to 492 nm and the “λex (excitation wavelength)” value turned out to be 274 nm. In data set [2], the “Stokes Shift” value was 218 nm and the λex was 274 nm. For the same molecule, in data set [3], the “log εmax” value worked out at 4.79 M^−1 cm^−1 and the λem was 486 nm. In addition, the “φ (quantum yield)” value in data set [4] turned out to be 0.15.

As for `O=S(=O)(Oc1ccccc1)c1ccc2c(c1)c1cc(-c3ccc(-c4ccccc4)cc3)ccc1[s+]2[O-]` (stereo not drawn) [Compound 8a, phenyl 8-([1,1′-biphenyl]-4-yl)dibenzo[b,d]thiophene-2-sulfonate 5-oxide], in data set [1], the “emission wavelength (emitted at)” value stood at 477 nm, the “excitation wavelength (excited at)” value is reported as 365 nm and the luminescence colour result is given as “luminesced in either a deep blue or near blue wavelength”.

As for `O=S(=O)(Oc1ccccc1)c1ccc2c(c1)-c1cc(-c3ccc(-c4ccccc4)cc3)ccc1S2(=O)=O` [Compound 8b, phenyl 8-([1,1′-biphenyl]-4-yl)dibenzo[b,d]thiophene-2-sulfonate 5,5-dioxide], in data set [1], the “emission wavelength (emitted at)” value was 475 nm, the “excitation wavelength (excited at)” value is recorded as 366 nm and the luminescence colour result was “luminesced in either a deep blue or near blue wavelength”. Also, in data set [2], the “log εex” value came out at 4.17 M^−1 cm^−1, the λabs came out at 243 nm, the λem was determined as 485 nm and the “λex (excitation wavelength)” value came out at 283 nm. Also, in data set [2], the “Stokes Shift” value was 202 nm and the λex was found to be 286 nm. Moreover, in data set [3], the “log εmax” value was 4.59 M^−1 cm^−1 and the λem turned out to be 478 nm. The “φ (quantum yield)” value in data set [4] is 0.59.

For the molecule `O=S(=O)([O-])c1ccc2c(c1)-c1cc(-c3ccccc3)ccc1S2(=O)=O.[Na+]` [Compound 15b, sodium 8-phenyldibenzo[b,d]thiophene-2-sulfonate 5,5-dioxide], in data set [2], the “log εex” value came out at 4.4 M^−1 cm^−1, the λabs worked out at 248 nm, the λem amounted to 371 nm and the “λex (excitation wavelength)” value came out at 268 nm. In data set [2], the “Stokes Shift” value is reported as 103 nm and the λex was determined as 274 nm. In data set [5], the “tracking with chromosomes during mitosis” value was “track with chromosomes during mitosis”, the “luminescence intensity in cells” value was “intense luminescence” and the “location of luminescence in the cell” value is listed as “luminescence is clearly identified within the nucleus of the cell”. In addition, the “cytotoxicity / decrease in cell viability” value in the data set with HeLa cells is on record as “do not show any decrease in cell viability at any concentration tested; also recorded: low cytotoxicity”. Further, in data set [3], the “log εmax” value was found to be 4.67 M^−1 cm^−1 and the λem was 380 nm. In data set [4], the “φ (quantum yield)” value came to 0.07.

Regarding `O=S(=O)([O-])c1ccc2c(c1)-c1cc(-c3ccc(-c4ccccc4)cc3)ccc1S2(=O)=O.[Na+]` [Compound 16b, sodium 8-([1,1′-biphenyl]-4-yl)dibenzo[b,d]thiophene-2-sulfonate 5,5-dioxide], in data set [2], the λabs stood at 246 nm, the λem came out at 412 nm, the “λex (excitation wavelength)” value is given as 287 nm and the “Stokes Shift” value is given as 125 nm. In data set [2], the λex is 284 nm. In addition, in data set [2] (setting [6]), the “log εex” value is reported as 2.48^a M^−1 cm^−1 and the “log εmax” value is listed as 4.75^a M^−1 cm^−1. Further, in data set [5], the “tracking with chromosomes during mitosis” value is recorded as “track with chromosomes during mitosis”, the “luminescence intensity in cells” value was “intense luminescence” and the “location of luminescence in the cell” value is listed as “luminescence is clearly identified within the nucleus of the cell”. Besides, the “cytotoxicity / decrease in cell viability” value with HeLa cells was “begins to show some degree of toxicity at 100 μM; also recorded: low cytotoxicity”. This molecule came in with a λem in data set [3] of 422 nm. The “φ (quantum yield)” value in data set [4] was 0.29.
